“Also recorded” adds a separate entry of the source.
Legend:
[1] = tested on: CD62L+/FoxP3+ Tregs; test: Phenotyping of Tregs by FACS in spleen and brachial lymph nodes; format: in vivo, mice; details: after 8 weeks of EPIT; Tregitope co-administered with cashew
Method: (§1) Sensitized mice were then treated by epicutaneous immunotherapy using Viaskin patches: • 10 mice were treated with viaskin containing excipient (Phosphate buffer 0.1 M+DMSO) • 10 mice were treated with viaskin containing 50 μg cashew protein (Stallergenes Greer, ref XPF84D3A2.5), • 10 mice were treated with viaskin containing 50 μg cashew protein+50 μg T1 • 10 mice were treated with viaskin containing 50 μg cashew protein+50 μg T2 • 10 mice were treated with viaskin containing 50 μg cashew protein+50 μg T3 • 10 mice were treated with viaskin containing 50 μg cashew protein+50 μg T1+50 μg T2+50 μg T3 • 10 mice were treated with viaskin containing 50 μg T1+50 μg T2+50 μg T3 m Tregitopes T1, T2 and T3 correspond to the homologs of human Tregitopes of SEQ ID NO: 1, SEQ ID NO:2 and SEQ ID NO:3, respectively. The N-terminus of the tested peptides was acetylated (CH3(C═O)—) while the C-terminus was amidated (—NH2) to prevent degradation by protease. […]
(§2) Anaphylactic reactions were characterized by a drop in body temperature and the occurrence of clinical symptoms. […] Cashew-specific IgE, IgG1 and IgG2a were measured by in house ELISA. […]

[2] = tested on: re-stimulated splenocytes; test: In vitro culture of spleen cells with or without cashew stimulation (proliferation, cytokine production); format: cell-based, mice; details: splenocytes after 8 weeks of EPIT
Method: as §1, §2

[3] = tested on: cashew-sensitized mice; test: Oral cashew challenge after 8 weeks of EPIT (anaphylaxis: body temperature, clinical symptoms, mMCP-1); details: Tregitope co-administered with cashew allergen extract by epicutaneous route, cashew-sensitized mouse model

T2: mTregitope from IgG1 (CH), EEQFNSTFRSVSELPIMHQ, homolog of human Tregitope SEQ ID NO: 2 (Ac-EEQFNSTFRSVSELPIMHQ-NH2) [Tregitope T2]
numbers of CD62L+/FoxP3+ Tregs in skin-draining lymph nodes (FIG. 2B) [1]: increase
numbers of CD62L+/FoxP3+ Tregs in spleens (FIG. 2A) [1]: increase
Th2 cytokines (IL-4) in re-stimulated splenocytes (FIG. 2D) [2]: down-modulation
cashew specific T-cell proliferation (FIG. 2C) [2]: reduced
potentiation of the efficacy of EPIT for providing tolerance to cashew [3]: clearly potentiate; also recorded: particularly marked

— patent US20240342273A1, “IMMUNOTHERAPEUTIC METHOD FOR INCREASING CASHEW TOLERANCE IN A SUBJECT” (DBV Technologies, priority 2021, published 2024)
